Assay results from PubChem BioAssay AID1919016 (Molecular Pharmacology Branch, DTP, NCI, 2023).

Tested on: NCI-H196 complex spheroid growth, percent test/control
Assay: Anticancer human tumor NCI-H196 cell line growth inhibition [AhR];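 further: seven days of drug exposure starting three days after plating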;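 on viability, T/C: 100% = DMSO vehicle control wells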
Settings: for IC50: curve of first compound; for viability, T/C: stronger effect = lower value
Method in brief: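 Spheroids combined tumor cells with HUVEC endothelial cells and human MSCs as stroma. AhR antagonists were paired with standard or investigational drugs, each dosed in half-log steps down from near clinical Cmax, or from 10 microM where Cmax was unknown.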

[1] = second compound 0.1 µM, first compound 0.0316 µM
[2] = second compound 0.1 µM, first compound 0.1 µM
[3] = second compound 0.316 µM, first compound 0.0316 µM
[4] = second compound 0.316 µM, first compound 0.1 µM
[5] = second compound 1 µM, first compound 0.0316 µM
[6] = second compound 1 µM, first compound 0.1 µM
[7] = second compound 3.16 µM, first compound 0.0316 µM
[8] = second compound 3.16 µM, first compound 0.1 µM
[9] = second compound 10 µM, first compound 0.0316 µM
[10] = second compound 10 µM, first compound 0.1 µM
[11] = second compound 0.1 µM, first compound 0.316 µM
[12] = second compound 0.1 µM, first compound 1 µM
[13] = second compound 0.1 µM, first compound 3.16 µM
[14] = second compound 0.1 µM, first compound 10 µM
[15] = second compound 0.316 µM, first compound 0.316 µM
[16] = second compound 0.316 µM, first compound 1 µM
[17] = second compound 0.316 µM, first compound 3.16 µM
[18] = second compound 0.316 µM, first compound 10 µM
[19] = second compound 1 µM, first compound 0.316 µM
[20] = second compound 1 µM, first compound 1 µM
[21] = second compound 1 µM, first compound 3.16 µM
[22] = second compound 1 µM, first compound 10 µM
[23] = second compound 3.16 µM, first compound 0.316 µM
[24] = second compound 3.16 µM, first compound 1 µM
[25] = second compound 3.16 µM, first compound 3.16 µM
[26] = second compound 3.16 µM, first compound 10 µM
[27] = second compound 10 µM, first compound 0.316 µM
[28] = second compound 10 µM, first compound 1 µM
[29] = second compound 10 µM, first compound 3.16 µM
[30] = second compound 10 µM, first compound 10 µM

With `Cn1ncnc1C1c2n[nH]c(=O)c3cc(F)cc(c23)NC1c1ccc(F)cc1` (stereo not given) + Cc1ccccc1N=Nc1ccc(NC(=O)c2ccnn2C)c(C)c1 the IC50 (second compound 0.1 µM) was > 100 nM, the IC50 (second compound 0.316 µM) was > 100 nM and the IC50 (second compound 1 µM) was > 100 nM. For the same compound, the IC50 (second compound 3.16 µM) was > 100 nM, the IC50 (second compound 10 µM) was > 100 nM and the viability, T/C (second compound 0.1 µM, first compound 0.000316 µM) was 96.3%. The viability, T/C (second compound 0.1 µM, first compound 0.001 µM) was 112%, the viability, T/C (second compound 0.1 µM, first compound 0.00316 µM) was 105% and the viability, T/C (second compound 0.1 µM, first compound 0.01 µM) was 101%. The viability, T/C [1] was 102%, the viability, T/C [2] was 103% and the viability, T/C (second compound 0.316 µM, first compound 0.000316 µM) was 108%. It also gave a viability, T/C (second compound 0.316 µM, first compound 0.001 µM) of 107%, a viability, T/C (second compound 0.316 µM, first compound 0.00316 µM) of 108% and a viability, T/C (second compound 0.316 µM, first compound 0.01 µM) of 106%. The viability, T/C [3] was 101%, the viability, T/C [4] was 104% and the viability, T/C (second compound 1 µM, first compound 0.000316 µM) was 102%. The viability, T/C (second compound 1 µM, first compound 0.001 µM) was 102%, the viability, T/C (second compound 1 µM, first compound 0.00316 µM) was 109% and the viability, T/C (second compound 1 µM, first compound 0.01 µM) was 107%. For the same compound, the viability, T/C [5] was 102%, the viability, T/C [6] was 106% and the viability, T/C (second compound 3.16 µM, first compound 0.000316 µM) was 94.2%. It also gave a viability, T/C (second compound 3.16 µM, first compound 0.001 µM) of 108%, a viability, T/C (second compound 3.16 µM, first compound 0.00316 µM) of 112% and a viability, T/C (second compound 3.16 µM, first compound 0.01 µM) of 98.2%. It also gave a viability, T/C [7] of 93.5%, a viability, T/C [8] of 102% and a viability, T/C (second compound 10 µM, first compound 0.000316 µM) of 94.2%. For the same compound, the viability, T/C (second compound 10 µM, first compound 0.001 µM) was 102%, the viability, T/C (second compound 10 µM, first compound 0.00316 µM) was 96.7% and the viability, T/C (second compound 10 µM, first compound 0.01 µM) was 94.7%. For the same compound, the viability, T/C [9] was 92.8% and the viability, T/C [10] was 92.6%.

`COc1cccc2c1C(=O)c1c(O)c3c(c(O)c1C2=O)CC(O)(C(=O)CO)CC3OC1CC(N)C(O)C(C)O1` (stereo not given) + Cc1ccccc1N=Nc1ccc(NC(=O)c2ccnn2C)c(C)c1 showed an IC50 (second compound 0.1 µM) of 665 nM, an IC50 (second compound 0.316 µM) of 662 nM and an IC50 (second compound 1 µM) of 668 nM. It also gave an IC50 (second compound 3.16 µM) of 646 nM, an IC50 (second compound 10 µM) of 875 nM and a viability, T/C [1] of 113%. For the same compound, the viability, T/C [2] was 102%, the viability, T/C [11] was 79.4% and the viability, T/C [12] was 36.2%. The viability, T/C [13] was 3.08%, the viability, T/C [14] was 7.85% and the viability, T/C [3] was 101%. The viability, T/C [4] was 100%, the viability, T/C [15] was 76.8% and the viability, T/C [16] was 36.7%. For the same compound, the viability, T/C [17] was 1.54%, the viability, T/C [18] was 5.07% and the viability, T/C [5] was 99.5%. For the same compound, the viability, T/C [6] was 105%, the viability, T/C [19] was 78.5% and the viability, T/C [20] was 35.9%. For the same compound, the viability, T/C [21] was 2.43%, the viability, T/C [22] was 8.49% and the viability, T/C [7] was 91.5%. It also gave a viability, T/C [8] of 93.8%, a viability, T/C [23] of 76.6% and a viability, T/C [24] of 34.7%. For the same compound, the viability, T/C [25] was 2.43%, the viability, T/C [26] was 13% and the viability, T/C [9] was 97.2%. The viability, T/C [10] was 92.2%, the viability, T/C [27] was 90.7% and the viability, T/C [28] was 44.3%. For the same compound, the viability, T/C [29] was 2.3% and the viability, T/C [30] was 12.7%.

With `COc1cccc2c1C(=O)c1c(O)c3c(c(O)c1C2=O)CC(O)(C(=O)CO)CC3OC1CC(N)C(O)C(C)O1` (stereo not given) + Cc1cncc(-c2nc(NCCc3c[nH]c4ccccc34)c3ncn(C(C)C)c3n2)c1 the IC50 (second compound 0.1 µM) was 545 nM, the IC50 (second compound 0.316 µM) was 528 nM and the IC50 (second compound 1 µM) was 458 nM. The IC50 (second compound 3.16 µM) was 414 nM, the IC50 (second compound 10 µM) was 330 nM and the viability, T/C [1] was 117%. It also gave a viability, T/C [2] of 102%, a viability, T/C [11] of 72.1% and a viability, T/C [12] of 27.3%. It also gave a viability, T/C [13] of 2.2%, a viability, T/C [14] of 2.04% and a viability, T/C [3] of 109%. For the same compound, the viability, T/C [4] was 115%, the viability, T/C [15] was 77.3% and the viability, T/C [16] was 15.7%. For the same compound, the viability, T/C [17] was 0.7%, the viability, T/C [18] was 1.46% and the viability, T/C [5] was 110%. For the same compound, the viability, T/C [6] was 106%, the viability, T/C [19] was 66.3% and the viability, T/C [20] was 15.6%. The viability, T/C [21] was 0.61%, the viability, T/C [22] was 3.01% and the viability, T/C [7] was 119%. It also gave a viability, T/C [8] of 95.9%, a viability, T/C [23] of 66.2% and a viability, T/C [24] of 6.46%. The viability, T/C [25] was 1.24%, the viability, T/C [26] was 2.12% and the viability, T/C [9] was 94.2%. For the same compound, the viability, T/C [10] was 77.8%, the viability, T/C [27] was 53.6% and the viability, T/C [28] was 2.32%. It also gave a viability, T/C [29] of 0.59% and a viability, T/C [30] of 1.88%.
